Assay results reported in patent USRE37781E1, “Substituted cyclic carbonyls and derivatives thereof useful as retroviral protease inhibitors” (DuPont Pharmaceuticals Company, priority 1991, dated 2002).
pKi: −log10 of the molar value. In brackets after ≈: the same amount, converted by molar mass. Like-named read-outs stand apart in the source and are kept apart here.

Columns and labels:
HIV protease = molecular target: T1, HIV protease (Human immunodeficiency virus type 1 group M subtype B, UniProt P04585); experiment: biochemical; parameters: species or system HIV-1
T1 construct: plasmid containing HIV protease under the control of an inducible T7 promoter; made in house; host or cells: E. coli (inclusion bodies, T7 promoter)
Description: HIV Protease Inhibition Assay—Spectroscopic Method
Inclusion bodies were solubilized in 8M urea, 50 mM tris pH 8.0. Protease activity was recovered by dilution 20-fold into buffer containing 50 mM sodium acetate pH 5.5, 1 mM EDTA, 10% glycerol and 5% ethylene glycol. Enzyme was used at a final concentration of 1.0-10 ug/ml.
Stock solutions of 10 mM were prepared in DMSO.
All further dilutions were done in DMSO.

[1] = molecular target: single-chain tethered dimer of HIV protease (Human immunodeficiency virus 1, UniProt P04585); experiment: biochemical; format: biochemical; parameters: fused on or other part: A second copy of the same protease unit is joined to the first by a short peptide tether, giving one polypeptide; settings: read-out: HPLC K1; Table 2d; class symbols
HIV-1 (RF) in MT-2 cells = experiment: microbe, parasite or virus in culture; format: cell-based; settings: Human immunodeficiency virus 1, MT2, 48 h, Table 2d; class symbols; read-out: IC90
Method in brief: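 Read-out: gag and pol viral RNA captured by 5′-biotinylated oligonucleotides on streptavidin-coated wells, detected with alkaline phosphatase-linked reporter oligonucleotides, calibrated against BH10 in vitro transcripts. Virus stocks (RF, MN, IIIB) come from H9 cultures; MT-2 host cells kept in RPMI 1640, 5% FCS.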

| Compound | pKi (HIV protease; Table 1a, read-out: Ki) | also measured |
| --- | --- | --- |
| CC(C)=CCN1C(=O)NC(Cc2ccccc2)C(O)C(O)C1Cc1ccccc1 (stereo not shown) [Example 1AE] | > 8.00 | – |
| O=C1N(Cc2ccncc2)C(Cc2ccccc2)C(O)C(O)C(Cc2ccccc2)N1Cc1ccncc1 (stereo not shown) [Example 1AI] | 6.00 to 8.00 | – |
| CC(C)CN1C(=O)N(CC(C)C)C(Cc2ccccc2)C(O)C(O)C1Cc1ccccc1 (stereo not shown) [Example 1AO] | 6.00 to 8.00 | – |
| O=C1N(Cc2ccccn2)C(Cc2ccccc2)C(O)C(O)C(Cc2ccccc2)N1Cc1ccccn1 (stereo not shown) [Example 1AR] | – | pKi (HIV protease; Ki): 6.00 to 8.00 |
| O=C1N(CCCc2ccccc2)C(Cc2ccccc2)C(O)C(O)C(Cc2ccccc2)N1CCCc1ccccc1 (stereo not shown) [Example 1AS] | 6.00 to 8.00 | – |
| C=CCN1C(=O)N(CC=C(C)C)C(Cc2ccccc2)C(O)C(O)C1Cc1ccccc1 (stereo not shown) [Example 1AT] | > 8.00 | – |
| O=C1N(CC=Cc2ccccc2)C(Cc2ccccc2)C(O)C(O)C(Cc2ccccc2)N1CC=Cc1ccccc1 (stereo not shown) [Example 1AU] | > 8.00 | – |
| C=CCN1C(=O)N(CC2CC2)C(Cc2ccccc2)C(O)C(O)C1Cc1ccccc1 (stereo not shown) [Example 1AW] | > 8.00 | – |
| CN1C(=O)N(Cc2ccccc2)C(Cc2ccccc2)C(O)C(O)C1Cc1ccccc1 (stereo not shown) [Example 1AY] | 6.00 to 8.00 | – |
| CC(C)=CCN1C(=O)N(C)C(Cc2ccccc2)C(O)C(O)C1Cc1ccccc1 (stereo not shown) [Example 1BD] | 6.00 to 8.00 | – |
| C=CCN1C(=O)N(CC=C)C(Cc2ccccc2)C(O)C(O)C1Cc1ccccc1 (stereo not shown) [Example 1D] | < 6.00 | – |
| O=C1NC(Cc2ccccc2)C(O)C(O)C(Cc2ccccc2)N1 (stereo not shown) [Example 1E] | < 6.00 | – |
| C=CCN1C(=O)N(CC=C)[C@H](Cc2ccccc2)[C@@H](O)[C@H](O)[C@H]1Cc1ccccc1 [Example 1G] | – | pKi (HIV protease; Ki, Table 1a): 6.00 to 8.00 |
| C=CCN1C(=O)N(CC=C)C(Cc2ccccc2)C(O)C(O)C1Cc1ccccc1 (stereo not shown) [Example 1H] | < 6.00 | – |
| O=C1N(Cc2ccccc2)C(Cc2ccccc2)C(O)C(O)C(Cc2ccccc2)N1Cc1ccccc1 (stereo not shown) [Example 1I] | – | pKi (HIV protease; Ki): < 6.00 |
| COCCOCCN1C(=O)N(CCOCCOC)C(Cc2ccccc2)C(O)C(O)C1Cc1ccccc1 (stereo not shown) [Example 1J] | < 6.00 | – |
| CC(C)=CCCC(C)=CCN1C(=O)N(CC=C(C)CCC=C(C)C)C(Cc2ccccc2)C(O)C(O)C1Cc1ccccc1 (stereo not shown) [Example 1K] | < 6.00 | – |
| CC(C)C(NCCN1C(=O)N(CCO)C(Cc2ccccc2)C(O)C(O)C1Cc1ccccc1)C(=O)OCc1ccccc1 (stereo not shown) [Example 1L] | < 6.00 | – |
| CC(C)CCCC(C)CCN1C(=O)N(CCC(C)CCCC(C)C)C(Cc2ccccc2)C(O)C(O)C1Cc1ccccc1 (stereo not shown) [Example 1N] | 6.00 to 8.00 | – |
| CC(C)CCCC(C)CCN1C(=O)NC(Cc2ccccc2)C(O)C(O)C1Cc1ccccc1 (stereo not shown) [Example 1Q] | 6.00 to 8.00 | – |
| COCCOCCOCCN1C(=O)NC(Cc2ccccc2)C(O)C(O)C1Cc1ccccc1 (stereo not shown) [Example 1R] | < 6.00 | – |
| CC(C)C(NCCN1C(=O)N(CCO)C(Cc2ccccc2)C(O)C(O)C1Cc1ccccc1)C(=O)OCc1ccccc1 (stereo not shown) [Example 1T] | 6.00 to 8.00 | – |
| O=C1N(Cc2cccc(C=NOCc3ccccc3)c2)C(Cc2ccccc2)C(O)C(O)C(Cc2ccccc2)N1Cc1cccc(C=NOCc2ccccc2)c1 (stereo not shown) [Example 9D] | – | pKi [1]: 6.00 to 8.00; melting point: 170.5 to 171 °C; IC90 (HIV-1 (RF) in MT-2 cells): 10 to 100 mg/L (≈ 12.9 to 129 µM) |
| COC(=O)Oc1cccc(CN2C(=O)N(Cc3cccc(OC(=O)OC)c3)C(Cc3ccccc3)C(O)C(O)C2Cc2ccccc2)c1 (stereo not shown) [Example 9G] | – | pKi [1]: 6.00 to 8.00; melting point: 146 to 147 °C; IC90 (HIV-1 (RF) in MT-2 cells): < 10 mg/L |
